Patent US8629143B2, “Potassium channel modulators” (AbbVie Inc., priority 2009, dated 2014)

Target: T1, KCNQ 2/3 channels (HEK293 cells stably expressing human KCNQ2 and KCNQ3 subunits) (Homo sapiens, UniProt O43525+O43526)
T1 construct: expressed in transfected cells; host or cells: HEK293
Assay: KCNQ2/3 channel activation, thallium flux FLIPR assay with BTC-AM dye
Format: cell-based
Conditions: for Emax: HEK293, maximum response relative to the response produced by 10 μM retigabine (set at 100%), read-out: Max. %; for EC50: HEK293 cells expressing human KCNQ2 and KCNQ3, thallium flux, FLIPR
Description: The following example describes the assay that can be used to identify compounds that activate KCNQ 2/3 channels.
HEK293 cells stably expressing human KCNQ2 and KCNQ3 subunits were seeded in 96-well, black-walled, clear-bottomed, poly-D-lysine coated plates (BD Biosciences, Bedford, Mass.) at a density of 1×10^5 cells per well 24 hours before the assay. On the assay day, BTC-AM dye (Invitrogen, Carlsbad, Calif.) was loaded into the cells by replacing the cell culture medium with 55 μL/well of 3 μg/mL dye in DPBS. Dye loading was allowed to proceed for 2 hours at room temperature and then cells were washed twice with 50 μL/well of assay buffer (in mM: 10 HEPES pH 7.3, 5 glucose, 140 Na-gluconate, 2.5 K-gluconate, 3.6 Ca-gluconate, 2 MgSO4, 0.1 Ouabain) to remove unloaded dye. Cells were incubated in 50 μL of assay buffer before loading onto a FLIPR system (Molecular Devices, Sunnyvale, Calif.). Various concentrations of compounds to be assayed were added to the cells in 50 μL of assay buffer and incubated for 4 minutes. The fluorescence signal was initiated by adding 100 μL of assay buffer containing 6 mM TlNO3 and 10 mM K2SO4. Fluors were excited using the 488-nm line of an argon laser and emission was filtered using a 540±30 nm bandpass filter. Fluorescent signals were recorded for 3 minutes. Sums of the responses over basal responses were plotted versus concentrations of test compounds to obtain an EC50 value. The maximum response for each test compound was determined relative to the response produced by 10 μM retigabine. The maximum response of retigabine at 10 μM was set at 100%.

SMILES | Emax | EC50
CC(C)(CC(=O)Nn1nc(-c2ccc(C(F)(F)F)cc2)c2ccccc2c1=O)c1ccccc1 [Example 148, 3-methyl-N-{1-oxo-4-[4-(trifluoromethyl)phenyl]phthalazin-2(1H)-yl}-3-phenylbutanamide] | 114% | 100 to 500 nM
O=C(CC12CC3CC(CC(F)(C3)C1)C2)Nn1nc(-c2ccccc2)c2ccsc2c1=O [Example 179, 2-(3-fluoroadamantan-1-yl)-N-(7-oxo-4-phenylthieno[2,3-d]pyridazin-6(7H)-yl)acetamide] | 169% | 500 to 1000 nM
O=C(Cc1cccc(C(F)(F)F)c1)Nn1nc(-c2ccc(Cl)cc2)c2ccccc2c1=O [Example 100, N-[4-(4-chlorophenyl)-1-oxophthalazin-2(1H)-yl]-2-[3-(trifluoromethyl)phenyl]acetamide] | 79% | 100 to 500 nM
CSCC(=O)Nn1nc(C(F)(F)F)c2ccccc2c1=O [Example 191, 2-(methylthio)-N-[1-oxo-4-(trifluoromethyl)phthalazin-2(1H)-yl]acetamide] | 25% | > 10000 nM
O=C(CC12CC3CC(CC(C3)C1)C2)Nn1nc(C(F)(F)F)c2ccccc2c1=O [Example 12, 2-(1-adamantyl)-N-[1-oxo-4-(trifluoromethyl)phthalazin-2(1H)-yl]acetamide] | 169% | 100 to 500 nM
O=C(Cc1cc(F)cc(F)c1)Nn1nc(-c2ccc(F)cc2)c2ccccc2c1=O [Example 133, 2-(3,5-difluorophenyl)-N-[4-(4-fluorophenyl)-1-oxophthalazin-2(1H)-yl]acetamide] | 144% | 100 to 500 nM
Cc1ccc(-c2nn(NC(=O)CC3CC4CCC3C4)c(=O)c3ccccc23)c(C)c1 (racemic) [Example 160, (±)-2-(exo-bicyclo[2.2.1]hept-2-yl)-N-[4-(2,4-dimethylphenyl)-1-oxophthalazin-2(1H)-yl]acetamide] | 157% | < 100 nM
O=C(Cc1cc(F)cc(F)c1)Nn1nc(-c2ccccc2)c2ccccc2c1=O [Example 18, 2-(3,5-difluorophenyl)-N-(1-oxo-4-phenylphthalazin-2(1H)-yl)acetamide] | 189% | 100 to 500 nM
O=C(Cc1ccc(Cl)cc1)Nn1nc(C2CCC2)c2ccccc2c1=O [Example 70, 2-(4-chlorophenyl)-N-(4-cyclobutyl-1-oxophthalazin-2(1H)-yl)acetamide] | 124% | 100 to 500 nM
CC(C)c1nn(NC(=O)CC23CC4CC(CC(C4)C2)C3)c(=O)c2c1C1CCC2CC1 [Example 8, 2-(1-adamantyl)-N-(4-isopropyl-1-oxo-5,6,7,8-tetrahydro-5,8-ethanophthalazin-2(1H)-yl)acetamide] | 79% | 1000 to 10000 nM
O=C(CC1(c2ccc(Cl)cc2)CCC1)Nn1nc(C(F)(F)F)c2ccccc2c1=O [Example 40, 2-[1-(4-chlorophenyl)cyclobutyl]-N-[1-oxo-4-(trifluoromethyl)phthalazin-2(1H)-yl]acetamide] | 7% | > 10000 nM
O=C(Cc1cc(F)cc(F)c1)Nn1nc(Cc2ccccc2)c2ccccc2c1=O [Example 143, N-(4-benzyl-1-oxophthalazin-2(1H)-yl)-2-(3,5-difluorophenyl)acetamide] | 128% | < 100 nM
CS(=O)(=O)c1ccc(CC(=O)Nn2nc(-c3ccc(Cl)cc3)c3ccccc3c2=O)cc1 [Example 111, N-[4-(4-chlorophenyl)-1-oxophthalazin-2(1H)-yl]-2-[4-(methylsulfonyl)phenyl]acetamide] | 25% | > 10000 nM
O=C(CC12CC3CC(CC(C3)C1)C2)Nn1nc(-c2ccc(Cl)cc2)c2ccccc2c1=O [Example 116, 2-(adamantan-1-yl)-N-[4-(4-chlorophenyl)-1-oxophthalazin-2(1H)-yl]acetamide] | 132% | < 100 nM
CC(C)c1nn(NC(=O)CC23CC4CC(CC(O)(C4)C2)C3)c(=O)c2ccccc12 [Example 61, 2-(3-hydroxyadamantan-1-yl)-N-(4-isopropyl-1-oxophthalazin-2(1H)-yl)acetamide] | 26% | > 10000 nM
COC(=O)c1ccc(-c2nn(NC(=O)Cc3ccc(Cl)cc3)c(=O)c3ccccc23)cc1 [Example 80, methyl 4-(3-{[(4-chlorophenyl)acetyl]amino}-4-oxo-3,4-dihydrophthalazin-1-yl)benzoate] | 80% | 100 to 500 nM

SMILES | Emax | EC50
O=C(CC12CC3CC(CC(C3)C1)C2)Nn1nc(-c2ccc(Cl)cc2)c2c(F)ccc(F)c2c1=O [Example 183, 2-(adamantan-1-yl)-N-[4-(4-chlorophenyl)-5,8-difluoro-1-oxophthalazin-2(1H)-yl]acetamide] | 178% | 100 to 500 nM
O=C(Cc1cccs1)Nn1nc(C(F)(F)F)c2ccccc2c1=O [Example 54, N-[1-oxo-4-(trifluoromethyl)phthalazin-2(1H)-yl]-2-(2-thienyl)acetamide] | 84% | 1000 to 10000 nM
O=C(Cc1ccc(F)cc1)Nn1nc(-c2ccccc2)c2ccccc2c1=O [Example 26, 2-(4-fluorophenyl)-N-(1-oxo-4-phenylphthalazin-2(1H)-yl)acetamide] | 157% | 100 to 500 nM
O=C(Cc1ccc2c(c1)OCO2)Nn1nc(-c2ccc(Cl)cc2)c2ccccc2c1=O [Example 194, 2-(1,3-benzodioxol-5-yl)-N-[4-(4-chlorophenyl)-1-oxophthalazin-2(1H)-yl]acetamide] | 248% | 500 to 1000 nM
O=C(Nn1nc(-c2ccc(Cl)cc2)c2ccccc2c1=O)C(F)c1ccccc1 (stereo not shown) [Example 90, N-[4-(4-chlorophenyl)-1-oxophthalazin-2(1H)-yl]-2-fluoro-2-phenylacetamide] | 1% | > 10000 nM
O=C(CC12CC3CC(CC(C3)C1)C2)Nn1nc(-c2ccccc2)c2sccc2c1=O [Example 9, 2-(1-adamantyl)-N-(4-oxo-7-phenylthieno[2,3-d]pyridazin-5(4H)-yl)acetamide] | 241% | 500 to 1000 nM
O=C(Cc1cc(F)cc(F)c1)Nn1nc(-c2ccc(Cl)cc2)c2ccccc2c1=O [Example 118, N-[4-(4-chlorophenyl)-1-oxophthalazin-2(1H)-yl]-2-(3,5-difluorophenyl)acetamide] | 128% | < 100 nM
COc1ccc(-c2nn(NC(=O)CC3CC4CCC3C4)c(=O)c3ccccc23)cc1 (racemic) [Example 151, (±)-2-(exo-bicyclo[2.2.1]hept-2-yl)-N-[4-(4-methoxyphenyl)-1-oxophthalazin-2(1H)-yl]acetamide] | 141% | < 100 nM
O=C(C[C@H]1C[C@@H]2CC[C@H]1C2)Nn1nc(C2CCC2)c2ccccc2c1=O (racemic) [Example 68, (±)-2-(exo-bicyclo[2.2.1]heptan-2-yl)-N-(4-cyclobutyl-1-oxophthalazin-2(1H)-yl)acetamide] | 164% | < 100 nM
O=C(CC1CCCC1)Nn1nc(C(F)(F)F)c2ccccc2c1=O [Example 43, 2-cyclopentyl-N-[1-oxo-4-(trifluoromethyl)phthalazin-2(1H)-yl]acetamide] | 112% | 100 to 500 nM
COc1ccc(-c2nn(NC(=O)Cc3cc(F)cc(F)c3)c(=O)c3ccccc23)cc1 [Example 153, 2-(3,5-difluorophenyl)-N-[4-(4-methoxyphenyl)-1-oxophthalazin-2(1H)-yl]acetamide] | 143% | 500 to 1000 nM
CC(C)(CC(=O)Nn1nc(C(F)(F)F)c2ccccc2c1=O)c1ccc(Cl)cc1 [Example 42, 3-(4-chlorophenyl)-3-methyl-N-[1-oxo-4-(trifluoromethyl)phthalazin-2(1H)-yl]butanamide] | 103% | 100 to 500 nM
O=C(Cc1cc(F)cc(F)c1)Nn1nc(C(F)(F)F)c2ccccc2c1=O [Example 11, 2-(3,5-difluorophenyl)-N-[1-oxo-4-(trifluoromethyl)phthalazin-2(1H)-yl]acetamide] | 77% | 100 to 500 nM
O=C(CC1CC2CCC1C2)Nn1nc(C2CCCC2)c2ccccc2c1=O (racemic) [Example 71, (±)-2-(exo-bicyclo[2.2.1]heptan-2-yl)-N-(4-cyclopentyl-1-oxophthalazin-2(1H)-yl)acetamide] | 162% | < 100 nM
CC(C)c1nn(NC(=O)CC23CC4CC(CC(F)(C4)C2)C3)c(=O)c2ccccc12 [Example 60, 2-(3-fluoroadamantan-1-yl)-N-(4-isopropyl-1-oxophthalazin-2(1H)-yl)acetamide] | 214% | < 100 nM
O=C(CC12CC3CC(CC(C3)C1)C2)Nn1nc(-c2ccc(Br)cc2)c2ccccc2c1=O [Example 2, 2-(1-adamantyl)-N-[4-(4-bromophenyl)-1-oxophthalazin-2(1H)-yl]acetamide] | 193% | 100 to 500 nM
